Where a SMILES comes first, the peptide text is derived from it.
Key:
[1] = Peptide hydrogel formation, vial-inverting method; format: physicochemical; set-up: key to EXP / GELATION: 0: no hydrogel; 1: hydrogel; conditions: for State: ultrasonication, standing 48 h; for Concentration: concentration at which the state was recorded: lowest of 30, 60, 90, 120 mM that gave a gel, 120 mM for non-gelating peptides; for GELATION: 1 = hydrogel, 0 = no hydrogel
Method in brief: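 Gelation judged by vial inversion, a non-flowing self-supporting sample counting as hydrogel, after 48 h standing. Peptide in water at 30 mM first, escalating to 60, 90 and 120 mM if no gel; pH set to 6.5–8.5 by stepwise 1 N NaOH, each step sonicated briefly.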

[2] = Transmission electron microscope (negative staining) of peptide assemblies; conditions: for Morphology: TEM, negative staining with uranyl acetate, 120 kV
Procedure: We used the negative staining technique to observe the morphologies formed by peptides. A micropipette was used to load 10 μL of sample solution to a carbon-coated copper grid, and we used a piece of filter paper to remove the excess solution. After rinsing the grid with the deionized water, we used uranyl acetate to stain the sample for 1 minute and then rinsed the grid with deionized water again.

[3] = 120 mM peptide (highest tested) in ultrapure water, pH 6.5-8.5 (1 N NaOH), vial-inverting method, precipitate, sol, suspension = no gel
[4] = peptide concentration 120 mM, vial-inverting method
[5] = 30 mM peptide in ultrapure water, pH adjusted to 6.5-8.5 with 1 N NaOH, vial-inverting method, concentration raised 30/60/90/120 mM until gelation
[6] = peptide concentration 30 mM, vial-inverting method
[7] = 60 mM peptide in ultrapure water, pH 6.5-8.5 (1 N NaOH), vial-inverting method, no gel at 30 mM
[8] = peptide concentration 60 mM, vial-inverting method
[9] = 90 mM peptide in ultrapure water, pH 6.5-8.5 (1 N NaOH), vial-inverting method, no gel at lower concentrations
[10] = peptide concentration 90 mM, vial-inverting method

Compound | State [1, 3] | Concentration [1] [µM] | GELATION [1, 4] | Morphology ([2]; line of the table gives 120 mM) | other results
N[C@@H](CS)C(=O)N[C@@H](Cc1c[nH]c2ccccc12)C(=O)N[C@@H](Cc1c[nH]cn1)C(=O)N[C@@H](Cc1ccc(O)cc1)C(=O)O [CWHY] (H-CWHY-OH) | gel | 120000 | 1 | aggregates | –
CC(C)C[C@H](NC(=O)[C@H](Cc1c[nH]cn1)NC(=O)[C@@H](N)Cc1ccccc1)C(=O)N[C@@H](Cc1ccccc1)C(=O)O [FHLF] (H-FHLF-OH) | – | 30000 | – | – | State [1, 5]: gel; GELATION [1, 6]: 1; Morphology ([2]; line of the table gives 30 mM): sheet
NCCCC[C@H](NC(=O)[C@@H](N)Cc1ccccc1)C(=O)N[C@@H](Cc1ccccc1)C(=O)N[C@@H](Cc1c[nH]c2ccccc12)C(=O)O [FKFW] (H-FKFW-OH) | – | 60000 | – | – | State [1, 7]: gel; GELATION [1, 8]: 1; Morphology ([2]; line of the table gives 60 mM): fibre
CC[C@H](C)[C@H](NC(=O)[C@@H](NC(=O)[C@@H](N)CC(C)C)C(C)C)C(=O)N[C@@H](Cc1ccccc1)C(=O)O [LVIF] (H-LVIF-OH) | – | 60000 | – | – | State [1, 7]: gel; GELATION [1, 8]: 1; Morphology ([2]; line of the table gives 60 mM): fibre
O=C(CNC(=O)[C@@H]1CCCN1)N[C@@H](Cc1c[nH]c2ccccc12)C(=O)N[C@@H](Cc1c[nH]c2ccccc12)C(=O)O [PGWW] (H-PGWW-OH) | sol | 120000 | 0 | aggregates | morphology by TEM (in words) ([2]; aqueous solution or hydrogel, negative staining): aggregates with different sizes
CSCC[C@H](NC(=O)[C@@H](N)CCSC)C(=O)N[C@@H](CC(C)C)C(=O)N[C@@H](CC(C)C)C(=O)O [MMLL] (H-MMLL-OH) | – | 90000 | – | – | State [1, 9]: gel; GELATION [1, 10]: 1; Morphology ([2]; line of the table gives 90 mM): sheet
CC(C)C[C@H](NC(=O)[C@H](C)NC(=O)[C@@H](N)C(C)C)C(=O)N[C@H](C(=O)O)C(C)C [VALV] (H-VALV-OH) | sol | 120000 | 0 | aggregates | EXP ([1]; experimental gelation result of the synthesized peptide): 0
CC[C@H](C)[C@H](NC(=O)[C@@H](NC(=O)[C@H](Cc1c[nH]cn1)NC(=O)[C@@H](N)CCC(N)=O)[C@@H](C)CC)C(=O)O [QHII] (H-QHII-OH) | sol | 120000 | 0 | aggregates | –
N[C@@H](Cc1c[nH]c2ccccc12)C(=O)N[C@@H](Cc1c[nH]c2ccccc12)C(=O)N[C@@H](Cc1c[nH]c2ccccc12)C(=O)N[C@@H](Cc1c[nH]c2ccccc12)C(=O)O [WWWW] (H-WWWW-OH) | suspension | 120000 | 0 | sphere | –
CC(C)[C@H](NC(=O)[C@@H]1CCCN1)C(=O)N[C@@H](Cc1ccccc1)C(=O)N[C@@H](Cc1ccc(O)cc1)C(=O)O [PVFY] (H-PVFY-OH) | – | 30000 | – | – | State [1, 5]: gel; GELATION [1, 6]: 1; Morphology ([2]; line of the table gives 30 mM): needle
CC[C@H](C)[C@H](NC(=O)[C@H](CC(C)C)NC(=O)[C@@H](NC(=O)[C@@H](N)C(C)C)[C@@H](C)CC)C(=O)O [VILI] (H-VILI-OH) | – | 60000 | – | – | State [1, 7]: gel; GELATION [1, 8]: 1; Morphology ([2]; line of the table gives 60 mM): hybrid(sheet+fibre)
CC[C@H](C)[C@H](NC(=O)[C@@H](NC(=O)[C@@H](NC(=O)[C@@H](N)Cc1c[nH]c2ccccc12)C(C)C)[C@@H](C)CC)C(=O)O [WVII] (H-WVII-OH) | – | 60000 | – | – | State [1, 7]: gel; GELATION [1, 8]: 1; hydrogel formation (in words) ([1]; vial-inverting method, representative hydrogels pH between 7.0 to 7.5): can form hydrogel; Morphology ([2]; line of the table gives 60 mM): fibre
CC(C)C[C@H](NC(=O)[C@H](CC(C)C)NC(=O)[C@@H](N)CCCCN)C(=O)N[C@@H](Cc1ccccc1)C(=O)O [KLLF] | – | 30000 | – | – | State [1, 5]: gel; GELATION [1, 6]: 1; Morphology ([2]; line of the table gives 30 mM): particle
CC[C@H](C)[C@H](N)C(=O)N[C@@H](CCCNC(=N)N)C(=O)N[C@H](C(=O)N[C@@H](Cc1c[nH]c2ccccc12)C(=O)O)C(C)C [IRVW] (H-IRVW-OH) | suspension | 120000 | 0 | sphere | –
N[C@@H](Cc1ccc(O)cc1)C(=O)N[C@@H](Cc1ccc(O)cc1)C(=O)N[C@@H](Cc1ccc(O)cc1)C(=O)N[C@@H](Cc1ccc(O)cc1)C(=O)O [YYYY] (H-YYYY-OH) | sol | 120000 | 0 | aggregates | –
C[C@@H](O)[C@H](NC(=O)[C@@H](N)CO)C(=O)N[C@@H](Cc1ccc(O)cc1)C(=O)N[C@@H](Cc1ccccc1)C(=O)O [STYF] (H-STYF-OH) | – | 60000 | – | – | State [1, 7]: gel; GELATION [1, 8]: 1; Morphology ([2]; line of the table gives 60 mM): hybrid(sphere+fibre)
CC[C@H](C)[C@H](NC(=O)[C@@H](N)CC(C)C)C(=O)N[C@@H](CCC(=O)O)C(=O)N[C@@H](CCSC)C(=O)O [LIEM] (H-LIEM-OH) | – | 90000 | – | – | State [1, 9]: gel; GELATION [1, 10]: 1; Morphology ([2]; line of the table gives 90 mM): hybrid(sheet+fibre)
CC[C@H](C)[C@H](NC(=O)[C@@H](NC(=O)[C@@H](N)Cc1c[nH]c2ccccc12)[C@@H](C)CC)C(=O)N[C@@H](Cc1ccccc1)C(=O)O [WIIF] (H-WIIF-OH) | – | 30000 | – | – | State [1, 5]: gel; GELATION [1, 6]: 1; Morphology ([2]; line of the table gives 30 mM): fibre
CC[C@H](C)[C@H](NC(=O)[C@H](CC(C)C)NC(=O)[C@@H](NC(=O)[C@@H](N)CC(C)C)C(C)C)C(=O)O [LVLI] (H-LVLI-OH) | – | 30000 | – | – | State [1, 5]: gel; GELATION [1, 6]: 1; Morphology ([2]; line of the table gives 30 mM): sheet
CC[C@H](C)[C@H](NC(=O)[C@@H](NC(=O)[C@@H](N)CC(C)C)C(C)C)C(=O)N[C@@H](Cc1ccc(O)cc1)C(=O)O [LVIY] (H-LVIY-OH) | gel | 120000 | 1 | sheet | –
CSCC[C@H](NC(=O)[C@@H](N)CCSC)C(=O)N[C@H](C(=O)N[C@H](C(=O)O)C(C)C)C(C)C [MMVV] (H-MMVV-OH) | – | 30000 | – | – | State [1, 5]: gel; GELATION [1, 6]: 1; Morphology ([2]; line of the table gives 30 mM): particle
CC(C)C[C@H](NC(=O)[C@H](Cc1ccccc1)NC(=O)[C@@H](N)CS)C(=O)N[C@@H](Cc1c[nH]c2ccccc12)C(=O)O [CFLW] (H-CFLW-OH) | suspension | 120000 | 0 | aggregates | –
CC(C)[C@H](NC(=O)[C@H](C)NC(=O)[C@@H](N)[C@@H](C)O)C(=O)N[C@@H](Cc1ccccc1)C(=O)O [TAVF] (H-TAVF-OH) | gel | 120000 | 1 | sheet | –
CC(C)C[C@H](N)C(=O)N[C@@H](Cc1c[nH]c2ccccc12)C(=O)N[C@@H](Cc1ccccc1)C(=O)N[C@@H](Cc1c[nH]c2ccccc12)C(=O)O [LWFW] (H-LWFW-OH) | – | 30000 | – | – | State [1, 5]: gel; CONCENTRATION (at which the hydrogel formed) ([1]; hydrogel-forming peptides only, vial-inverting method): 30000 µM; GELATION [1, 6]: 1; Morphology ([2]; line of the table gives 30 mM): sphere
O=C(O)[C@H](CS)NC(=O)[C@H](Cc1c[nH]c2ccccc12)NC(=O)[C@H](Cc1c[nH]c2ccccc12)NC(=O)[C@@H]1CCCN1 [PWWC] (H-PWWC-OH) | suspension | 120000 | 0 | aggregates | –
CSCC[C@H](NC(=O)[C@@H](N)CCC(N)=O)C(=O)N[C@H](C(=O)N[C@H](C(=O)O)C(C)C)C(C)C [QMVV] (H-QMVV-OH) | gel | 120000 | 1 | aggregates | –
N[C@@H](CO)C(=O)N[C@@H](CO)C(=O)N[C@@H](Cc1ccccc1)C(=O)N[C@@H](Cc1ccccc1)C(=O)O [SSFF] (H-SSFF-OH) | – | 30000 | – | – | State [1, 5]: gel; GELATION [1, 6]: 1; Morphology ([2]; line of the table gives 30 mM): fibre
C[C@H](NC(=O)[C@@H](N)Cc1ccccc1)C(=O)N[C@@H](Cc1ccccc1)C(=O)N1CCC[C@H]1C(=O)O [FAFP] (H-FAFP-OH) | suspension | 120000 | 0 | particle | –
CC(C)[C@H](N)C(=O)N[C@H](C(=O)N[C@H](C(=O)N[C@H](C(=O)O)C(C)C)C(C)C)C(C)C [VVVV] (H-VVVV-OH) | – | 60000 | – | – | State [1, 7]: gel; GELATION [1, 8]: 1; Morphology ([2]; line of the table gives 60 mM): sheet
CSCC[C@H](NC(=O)[C@H](Cc1c[nH]c2ccccc12)NC(=O)[C@@H](N)Cc1c[nH]c2ccccc12)C(=O)N[C@@H](Cc1ccccc1)C(=O)O [WWMF] (H-WWMF-OH) | gel | 120000 | 1 | rod | –

— publication PMC10313671, “Accelerating the prediction and discovery of peptide hydrogels with human-in-the-loop” (Nature Communications, 2023)
